Consider two compounds from patent US20220184037A1, “PHARMACEUTICAL AGENTS TARGETING CANCER STEM CELLS” (THE JOHNS HOPKINS UNIVERSITY, priority 2020, published 2022).

In one series the test system is YAP1. Put plainly: Western blotting of YAP1 expression in bladder cancer cells. Type of series: cell-based, human. The protocol:
(§1) Whole cell lysates were extracted using RIPA buffer (Thermo Scientific) supplemented with 10 μL/mL Halt™ Protease Inhibitor Cocktail Kit (Life Technologies) and 30 μL/mL Halt™ Phosphatase Inhibitor Cocktail Kit (Life Technologies). The protein concentrations were determined using a Pierce™ BCA Protein Assay Kit (Life Technologies), and the protein were separated on. NuPAGE 4-12% Bis-Tris Gel (Life Technologies) according to the manufacturer's protocol. COX2 (D5H5), NANOG (D73G4), OCT4 (D7O5Z), CD133 (A3G6K), Snail (C15D3), ZEBI (D80D3), Vimentin (D21H3), CDH2 (D4R1H), CDH1 (24E10), p-EGFR (D7A5), EGFR (D38B1), p-AKT (D9E), AKT (cat #, 9272), p-ERK (D13.14.4E), ERK (137F5), p-YAP1 (D9W2I), p-Src (cat #, 2101), Src (36D10), DNMT1 (D63A6), DNMT3A (D23G1), and DNMT3B (D7070) antibodies were obtained from Cell Signaling Technology (Danvers, Mass., USA), except for SOX2 (EPR3131; Abeam, Cambridge, USA), YAP1 (ab52771; Abeam), CD24 (cat #, AF5247-SP; R&D Systems, Minneapolis USA) and β-actin (A2228; Sigma-Aldrich). Secondary horseradish peroxidase (HRP)-conjugated antibodies were obtained from Cell Signaling Technology, and chemiluminescent detection of HRP-labeled antibodies was performed using Amersham ECL Prime Western Blotting Detection Reagent (GE Healthcare, Piscataway, USA). As loading control, β-actin was used.
A general note: In western blotting, separated proteins are transferred to a membrane and probed.

Series [1] relates to AKT and extracellular signal-related kinase (ERK). Put plainly: Western blotting of AKT and ERK activation. Type of series: cell-based, human. To be noted: basal-type cells, erlotinib. The protocol:
as §1

Series [2] has as its system bladder cancer cells (urothelial CSCs). Put plainly: Sphere formation assay. Type of series: cell-based, human. The protocol:
Sphere formation was induced by culturing cells (2×10^4/well) in […] F12 50/50 Mix (Mediatech) supplemented with B-27 (Life Technologies), 20 ng/mL FGF-basic (Peprotech), 20 ng/mL EGF (Peprotech). Cell culture was performed in ultra-low attachment 6 well plates (Corning, Lowell, USA) for 10 days. The medium was replaced every other day. Sphere formation was evaluated using the inverted phase-contrast microscope, and single sphere with a diameter larger than 100 gm was counted using NIS-Elements Microscope Imaging Software. To redifferentiate spheres, spheres were plated in standard growth medium with 10% FBS in dishes supporting cell attachment, and incubated for 7 days. For self-renewal assay, primary spheres were collected by gentle centrifugation (5 min at 400×g), dissociated with Stempro Accutase Cell Dissociation Reagent (Life Technologies), and mechanically disrupted with a pipette. The cell suspension was sieved through 40 μm cell strainer cap filter to achieve a single-cell suspension, and then equal numbers of alive cells were plated in ultralow attachment plates to generate the second spheres. Again, spheres were counted on day 14 and digested to generate the third Spheres. All the experiments were performed in triplicate and repeated at least three times.

The test system of another series is SOX2. Nature of the series: Western blotting / flow cytometry of SOX2 expression in bladder cancer cells. In kind it is cell-based, human. The protocol: as §1
For extracellular staining, cells (1×10^6/100 μL stain buffer) were incubated with PE-Vio770-conjugated anti-human CD133 (293C3; Miltenyi Biotec, Auburn, USA) or PE-conjugated anti-human CD24 antibody (cat #, 560991; BD Biosciences) for 30 min at 4° C. in dark. PE-Vio770-conjugated anti-IgG1κ Isotype (cat #, 130-098-563; Miltenyi Biotec) and PE-conjugated IgG2a, κ Isotype (cat #, 555574; BD Biosciences) were used as control for CD133 and CD24 staining, respectively. Staining for intracellular SOX2 was carried out using the BD Cytofix/Cytopem Fixation/Permeabilization Kit (BD Biosciences) according to manufacturer's protocol. The cells were incubated with Alexa Fluor 647-conjugated anti-SOX2 antibody (cat #, 560302; BD Biosciences) for 40 min at 4° C. in dark. Alexa Fluor 647-conjugated anti-IgG2a, κ Isotype (cat #, 558053; BD Biosciences) was used as control. Data were acquired on a BD FACSCalibur flow cytometer (BD Biosciences) using BD CellQuest Pro software (BD Biosciences) and analyzed with FlowJo software v10.1 (Tree Star, Ashland, USA).

In series [3] the test system is promoters of miR-126, miR-296 and miR-200c. Put plainly: Bisulfite sequencing of miRNA promoter methylation. In kind it is cell-based, human. To be noted: spheroid cells.
Protocol: Cell pellets were digested with 1% sodium dodecyl sulfate and 50 μg/mL proteinase K (Roche, Nutley, USA) at 48° C. overnight. Isolation of genomic DNA from cell lines was performed with the phenol-chloroform extraction protocol followed by ethanol precipitation. Bisulfite treatment was conducted using an EpiTect Bisulfite K ft (QIAGEN, Valencia, USA), and was subsequently amplified via PCR using primers as shown in the following table. PCR products were purified using the QIAquick Gel Extraction kit (Qiagen), and sequenced by Genewiz DNA sequencing service (Genewiz, South Plainfield, USA). The data were analyzed using the Sequence Scanner v1.0 software (Life technologies). A methylation frequency of ≥50% of total CpG sites within the amplified region was considered “methylation-positive”.
A short description of series [4]: Body weight of treated mice. In kind it is in vivo. To be noted: mice treated with inhibitors compared with control. The protocol: For therapeutic efficacy, mice were randomly assigned into experimental groups (five mice per group) when tumors reached a volume of […]. For celecoxib and/or VP treatment, celecoxib (5 mg/kg) was administered via intraperitoneal (i.p.) injection once a day (17), and VP (50 mg/kg) was administered via i.p. every other day (18). EP4 antagonist ONO-AE3-208 (10 mg/kg) was administered via i.p. once a day (19). Control was applied with same volume (10 μL per injection) of 10% dimethyl sulphoxide in 1% TWEEN 80 (Sigma-Aldrich). For GEM and CDDP (GC) treatment (i.p.), CDDP (6 mg/kg) was only applied after the first GEM (60 mg/kg) treatment on day 2, followed by three consecutive treatments of GEM on day 5, 8 and 11 (17). The next cycle was started on day 18, and the treatment was continued until tumor reached 2 cm in diameter. For erlotinib treatment, the mice were treated once a day, 6 days per week, by oral gavage with erlotinib (100 mg/kg) or control (PBS containing 0.5% methyl cellulose (Sigma-Aldrich) and 0.1% TWEEN 80) (20). Tumor size was measured at least every three days. Therapeutic efficacy was assessed using percentage change after treatment related to tumor size before treatment. […]

The mark [5] stands for this setting: basal-type cells, 1 μM erlotinib.

Turning to `C#Cc1cccc(Nc2ncnc3cc(OCCOC)c(OCCOC)cc23)c1` [erlotinib, Erlotinib], in the series on YAP1 (setting [5]), the YAP1 expression result is on record as “continuously decreased YAP1 expression”. Further, in the series with YAP1 (non-basal-type cells, erlotinib), the “levels of YAP1 expression” value is listed as “did not affect”. Besides, the “activation of AKT and ERK” value in series [1] is reported as “suppressed activation”. Also, the number of spheres result in series [2] (basal-type cells, 1 μM erlotinib for 72 hours) is reported as “enriched number of spheres”. The “level of SOX2 expression over time” value in the series with SOX2 (setting [5]) is “decreased at 1 hour after treatment with erlotinib and then gradually increased”.
Consider `Cc1ccc(-c2cc(C(F)(F)F)nn2-c2ccc(S(N)(=O)=O)cc2)cc1` [celecoxib, Celecoxib], for which the “promoter methylation of miR-126, miR-296, miR-200c” value in series [3] was “demethylated”. Besides, the “induction of YAP1 expression” value in the series on YAP1 (COX2 inhibitor added to erlotinib) is “no longer able to induce YAP1 expression”. In series [2] (COX2 inhibitor or EP4 antagonist alone), the “sphere-forming ability / sphere formation” value was “repressed”. In series [2] (basal-type cells, COX2 inhibitor added to erlotinib (10 μM celecoxib, 72 hours)), the erlotinib-increased sphere formation result was “impaired”. The body weight loss entry in series [4] is on record as “did not observe body weight loss”. For the same compound, the SOX2 expression result in the series with SOX2 (COX2 inhibitor or EP4 antagonist alone (FIG. 2A-B, S7)) is on record as “SOX2 downregulation”. Besides, the “erlotinib-increased SOX2 expression” value in the series on SOX2 (basal-type cells, COX2 inhibitor added to erlotinib) is on record as “impaired”.
